Measurements reported in ChEMBL document CHEMBL2407006, “Selective cytotoxic effects on human breast carcinoma of new methoxylated flavonoids from Euryops arabicus grown in Saudi Arabia” (Eur J Med Chem, 2013).
Activity calls are given as the source filed them. No cut-off for these calls is given here.

Assays:
[1] = system: WI-38; assay: Antiproliferative activity against human WI38 cells after 48 hrs by MTT assay; format: functional, cell-based; conditions: WI-38, 48 h
[2] = system: MCF7; assay: Cell cycle arrest in human MCF7 cells assessed as reduction in S-phase accumulation at IC50 after 24 hrs by FACs analysis (reference value: 34.1+/-1.1 %); format: functional; parameters: scale not given: the % may be the effect or the level left
[3] = system: MCF7; assay: Cell cycle arrest in human MCF7 cells assessed as reduction in G2/M-phase accumulation at IC50 after 24 hrs by FACs analysis relative to untreated control; format: functional, cell-based
[4] = system: Vero; assay: Antiproliferative activity against african green monkey Vero cells after 48 hrs by MTT assay; format: functional, cell-based; conditions: Chlorocebus sabaeus
[5] = system: MCF7; assay: Cell cycle arrest in human MCF7 cells assessed as increase in G0/G1-phase accumulation at IC50 after 24 hrs by FACs analysis (reference value: 55.6+/-0.6 %); format: functional
[6] = Antioxidant activity assessed as ABTS free radical scavenging activity by spectrophotometry; format: functional; parameters: concentration or dose not given beside the values
[7] = system: MCF7; assay: Antiproliferative activity against human MCF7 cells after 48 hrs by MTT assay; format: functional, cell-based; conditions: MCF7, 48 h
[8] = system: PBL; assay: Immunostimulant activity in PHA-stimulated human PBL assessed as lymphocyte transformation at 2 mM after 72 hrs by Giemsa staining method; format: functional
[9] = system: HepG2; assay: Antiproliferative activity against human HepG2 cells after 48 hrs by MTT assay; format: functional, cell-based; conditions: HepG2, 48 h
[10] = system: MCF7; assay: Cell cycle arrest in human MCF7 cells assessed as increase in G0/G1-phase accumulation at IC50 after 24 hrs by FACs analysis; format: functional, cell-based
[11] = system: MCF7; assay: Cell cycle arrest in human MCF7 cells assessed as reduction in S-phase accumulation at IC50 after 24 hrs by FACs analysis; format: functional, cell-based
[12] = system: MCF7; assay: Cell cycle arrest in human MCF7 cells assessed as increase in pre-G apoptotic fraction at IC50 after 24 hrs by FACs analysis relative to untreated control; format: functional, cell-based

Row | SMILES | IC50 [1] [µM] | Activity [2] [%] | Activity [3] | IC50 [4] [µM] | Activity [5] [%] | Activity [6] [%] | IC50 [7] [µM] | Activity [8] [%] | IC50 [9] [µM] | Activity [10] | Activity [11] | Activity [12]
1 | COc1ccc(-c2cc(=O)c3cc(OC)c(O)c(OC)c3o2)cc1OC | 115 | 15.6 | Active | 95 | 73.4 | 52.7 | 15 | 55 | 20 |  |  | 
2 | O=c1[nH]cc(F)c(=O)[nH]1 [FLUOROURACIL] | 10 |  |  | 8 |  |  |  |  | 10 | Active | Active | Active
3 | COc1cc(O)c2c(=O)cc(-c3ccc(OC)c(OC)c3)oc2c1 | 105 | 13 | Active | 125 | 71.3 | 45.8 | 10 | 65 | 15 |  |  | Active
4 | O=C1O[C@H]([C@@H](O)CO)C(O)=C1O |  |  |  |  |  | 80 |  |  |  |  |  | 
5 | COc1ccc(-c2oc3c(OC)c(OC)c(OC)c(O)c3c(=O)c2OC)cc1 [5-HYDROXYAURANETIN] | 80 |  |  | 90 |  | 71.1 | 30 | 25 | 35 |  |  | 
6 | COc1cc(-c2cc(=O)c3cc(OC)c(OC)c(O)c3o2)cc(O)c1OC | 105 |  |  | 85 |  | 56.8 | 25 | 35 | 30 |  |  | 
7 | COc1ccc(-c2cc(=O)c3c(O)c(OC)c(OC)c(OC)c3o2)cc1 [GARDENIN B] | 75 |  |  | 85 |  | 75.4 | 30 | 20 | 40 |  |  | 
8 | COc1ccc(-c2cc(=O)c3c(O)c(OC)c(OC)c(O)c3o2)cc1OC | 95 |  |  | 100 |  | 78.3 | 35 | 15 | 45 |  |  | 
9 | COc1cc(-c2cc(=O)c3c(O)cc(OC)c(OC)c3o2)cc(OC)c1OC | 100 |  |  | 105 |  | 54.2 | 20 | 45 | 25 |  |  | 
10 | C=C1C[C@]23CC[C@H]4C(CO)(CO)C(=O)CC[C@]4(C)[C@H]2CC[C@@H]1C3 | 90 |  |  | 90 |  | 34.3 | 40 | 10 | 50 |  |  | 
